Assay results published in patent publication US20240360104A1, “TRANSCRIPTIONAL ENHANCED ASSOCIATED DOMAIN (TEAD) TRANSCRIPTION FACTOR INHIBITORS AND USES THEREOF” (Dana-Farber Cancer Institute, Inc., priority 2021, published 2024).
pIC50: −log10 of the molar value.

What was measured:
NCI-H226 cells = experiment: Antiproliferation assay on NCI-H226 cells (CellTiter-Glo, 5-day treatment); assay type: cell-based; conditions: Homo sapiens, 120 h, 200 cells/well, 384 plate
Method: Example 1. Antiproliferation Assay on NCI-H226 Cells (200 Cells/Well, 384 Plate, 5-Day Treatment)
The compounds of the disclosure were tested for their ability in an antiproliferation assay using NCI-H226 cells (FIG. 6 and FIG. 7). The following table summarizes the IC50 values calculated from the graph of the percent inhibition versus the log of the concentration of representative compounds of the disclosure.
For 2D adherent cell viability experiment, the cells were seeded at 384-well plate (Corning, no. 3570) at the density of 200 cells/well (FIGS. 1-7). The next day, compounds were added using Janus workstation (PerkinElmer). After 5 days treatment, the cell viability was measured by CellTiter-Glo kit (Promega, no. G7570) as the manufacturer recommended.

H2052 cells = experiment: Antiproliferation assay using H2052 cells; assay type: cell-based; conditions: Homo sapiens, NCI-H2052; H2052 cells (FIG. 2)

SMILES: C=CC(=O)N1C[C@@H](n2ccc(C(=O)NC)n2)[C@H](OCc2ccc(C(F)(F)F)cc2)C1 (relative stereo) [IV-5, 1-(trans-1-acryloyl-4-(4-(trifluoromethyl)benzyloxy)pyrrolidin-3-yl)-N-methyl-1H-pyrazole-3-carboxamide]
- pIC50 (NCI-H226 cells): 6.31

SMILES: C=CC(=O)N1C[C@@H](OCc2ccc(C(F)(F)F)cc2)[C@H](c2cccc(S(C)(=O)=O)c2)C1 [VII-2]
- pIC50 (NCI-H226 cells): 6.59

SMILES: C=CC(=O)N1C[C@@H](n2nc(-c3cnn(C)c3)ccc2=O)[C@H](OCc2ccc(C(F)(F)F)cc2)C1 (relative stereo) [VI-2, 2-(trans-1-acryloyl-4-(4-(trifluoromethyl)benzyloxy)pyrrolidin-3-yl)-6-(1-methyl-1H-pyrazol-4-yl)pyridazin-3(2H)-one]
- pIC50 (NCI-H226 cells): 7.00

SMILES: C=CC(=O)N1C[C@@H](n2cc(-c3ccc(N)nc3)nn2)[C@H](OCc2ccc(C(F)(F)F)cc2)C1 (relative stereo) [II-6, 1-(trans-3-(4-(6-aminopyridin-3-yl)-1H-1,2,3-triazol-1-yl)-4-(4-(trifluoromethyl)benzyloxy)pyrrolidin-1-yl)prop-2-en-1-one]
- pIC50 (NCI-H226 cells): 6.95

SMILES: C=CC(=O)N1C[C@@H](n2cc(C(=O)NC)nn2)[C@H](OCc2ccc(C(F)(F)F)cc2)C1 (relative stereo) [II-2, 1-(trans-1-acryloyl-4-(4-(trifluoromethyl)benzyloxy)pyrrolidin-3-yl)-N-methyl-1H-1,2,3-triazole-4-carboxamide]
- pIC50 (NCI-H226 cells): 6.34

SMILES: C=CC(=O)N1C[C@@H](n2cc(C3CCN(C)CC3)nn2)[C@H](OCc2ccc(C(F)(F)F)cc2)C1 (relative stereo) [II-19, 1-(trans-3-(4-(1-methylpiperidin-4-yl)-1H-1,2,3-triazol-1-yl)-4-(4-(trifluoromethyl)benzyloxy)pyrrolidin-1-yl)prop-2-en-1-one]
- pIC50 (NCI-H226 cells): 6.71

SMILES: C=CC(=O)N1C[C@@H](n2cc(-c3cccc(C#N)c3)nn2)[C@H](OCc2ccc(C(F)(F)F)cc2)C1 (relative stereo) [II-7, 3-(1-(trans-1-acryloyl-4-(4-(trifluoromethyl)benzyloxy)pyrrolidin-3-yl)-1H-1,2,3-triazol-4-yl)benzonitrile]
- pIC50 (NCI-H226 cells): 6.42

SMILES: C=CC(=O)N1C[C@@H](OCc2ccc(C(F)(F)F)cc2)[C@H](c2ccc(S(C)(=O)=O)cc2)C1 (relative stereo) [VII-1, 1-(trans-3-(4-(methylsulfonyl)phenyl)-4-(4-(trifluoromethyl)benzyloxy)pyrrolidin-1-yl)prop-2-en-1-one]
- pIC50 (NCI-H226 cells): 6.77

SMILES: C=C(F)C(=O)N1C[C@@H](Nc2ncccn2)[C@H](OCc2ccc(C(F)(F)F)cc2)C1 [Compound I-9, 2-fluoro-1-((3R, 4R)-3-(pyrimidin-2-ylamino)-4-(4-(trifluoromethyl)benzyloxy)pyrrolidin-1-yl)prop-2-en-1-one]
- pIC50 (NCI-H226 cells): 7.64

SMILES: C=CC(=O)N1C[C@@H](n2ccnn2)[C@H](OCc2ccc(C(F)(F)F)cc2)C1 [II-8]
- pIC50 (H2052 cells): 6.85
- pIC50 (NCI-H226 cells): 7.11

SMILES: C=CC(=O)N1C[C@@H](Nc2ncccn2)[C@H](OCc2ccc(C(F)(F)F)cc2)C1 (relative stereo) [Compound I-1, 1-(trans-3-(pyrimidin-2-ylamino)-4-(4-(trifluoromethyl)benzyloxy)pyrrolidin-1-yl)prop-2-en-1-one]
- pIC50 (NCI-H226 cells): 7.44

SMILES: C=CC(=O)N1C[C@@H](n2ncc(-c3cnn(C)c3)cc2=O)[C@H](OCc2ccc(C(F)(F)F)cc2)C1 (relative stereo) [VI-3, 2-(trans-1-acryloyl-4-((4-(trifluoromethyl)benzyl)oxy)pyrrolidin-3-yl)-5-(1-methyl-1H-pyrazol-4-yl)pyridazin-3(2H)-one]
- pIC50 (NCI-H226 cells): 7.39

SMILES: C=CC(=O)N1C[C@@H](n2cc(C(N)=O)nn2)[C@H](OCc2ccc(C(F)(F)F)cc2)C1 (relative stereo) [II-1, 1-(trans-1-acryloyl-4-(4-(trifluoromethyl)benzyloxy)pyrrolidin-3-yl)-1H-1,2,3-triazole-4-carboxamide]
- pIC50 (NCI-H226 cells): 6.24

SMILES: C=CC(=O)N1C[C@@H](NS(=O)(=O)c2cccc(C#N)c2)[C@H](OCc2ccc(C(F)(F)F)cc2)C1 (relative stereo) [Compound V-6, N-(trans-1-acryloyl-4-(4-(trifluoromethyl)benzyloxy)pyrrolidin-3-yl)-3-cyanobenzenesulfonamide]
- pIC50 (NCI-H226 cells): 6.27

SMILES: C#Cc1ccc(CO[C@@H]2CN(C(=O)C=C)C[C@H]2n2cc(-c3cccnc3)nn2)cc1 [III-6, 1-((3R,4R)-3-(4-ethynylbenzyloxy)-4-(4-(pyridin-3-yl)-1H-1,2,3-triazol-1-yl)pyrrolidin-1-yl)prop-2-en-1-one]
- pIC50 (NCI-H226 cells): 6.59

SMILES: C=CC(=O)N1C[C@@H](Nc2ccncn2)[C@H](OCc2ccc(C(F)(F)F)cc2)C1 (relative stereo) [VII-11, 1-(trans-3-(pyrimidin-4-ylamino)-4-(4-(trifluoromethyl)benzyloxy)pyrrolidin-1-yl)prop-2-en-1-one]
- pIC50 (NCI-H226 cells): 6.72

SMILES: C=CC(=O)N1C[C@@H](n2cc(-c3cncc(N)c3)nn2)[C@H](OCc2ccc(C(F)(F)F)cc2)C1 (relative stereo) [II-5, 1-(trans-3-(4-(5-aminopyridin-3-yl)-1H-1,2,3-triazol-1-yl)-4-(4-(trifluoromethyl)benzyloxy)pyrrolidin-1-yl)prop-2-en-1-one]
- pIC50 (NCI-H226 cells): 6.76

SMILES: C=CC(=O)N1C[C@@H](NS(=O)(=O)c2c(C)noc2C)[C@H](OCc2ccc(C(F)(F)F)cc2)C1 (relative stereo) [Compound V-5, N-(trans-1-acryloyl-4-(4-(trifluoromethyl)benzyloxy)pyrrolidin-3-yl)-3,5-dimethylisoxazole-4-sulfonamide]
- pIC50 (NCI-H226 cells): 6.02

SMILES: C=CC(=O)N1C[C@@H](NS(=O)(=O)c2cccnc2)[C@H](OCc2ccc(C(F)(F)F)cc2)C1 [Compound V-1]
- pIC50 (NCI-H226 cells): 6.42
